One data set deals with Mucorales Mucor species. Nature of the data set: In vitro susceptibility (MIC), macrobroth dilution. In kind it is cell-based. The settings on record: Mucor sp. 13-127, drug alone; for MIC50: lowest concentration causing 50% decrease in growth vs untreated control; for MIC100: lowest concentration without growth. For orientation: Broth dilution looks for growth in wells or tubes with falling amounts of substance.

The next data set has as its system Aspergillus fumigatus. Nature of the data set: In vitro susceptibility (MIC), macrobroth dilution. Format: cell-based. The note with it: drug alone; for MIC50: lowest concentration causing 50% decrease in growth vs untreated control; for MIC100: lowest concentration without growth.
The subject of the next data set is Candida albicans. The data set can be described thus: In vitro susceptibility (MIC), macrobroth dilution. The settings on record: C. albicans 5, drug alone. In kind it is cell-based.
The subject of data set [1] is A. fumigatus. The data set can be described thus: Alamar blue metabolic activity assay. The note with it: for interaction with BRI in inhibition of metabolic activity (Alamar blue): increasing concentrations + BRI 20 μM, 48 hours. Format: cell-based, Aspergillus fumigatus. In general terms: Resazurin is reduced to fluorescent resorufin, in cell work by metabolically active cells.

In data set [2] the test system is A. fumigatus. The data set can be described thus: Protein kinase inhibitor (PKI) library screen with or without BRI. The settings on record: for growth, PKI (20 μM): PKI 20 μM alone; for growth, PKI (20 μM) + BRI (20 μM): PKI 20 μM together with BRI 20 μM; for activity at 20 µM: Aspergillus fumigatus, 48 h, read-out: growth, PKI (20 μM).
Procedure: A protein kinase inhibitors (PKI) library was also screened in combination with BRI. In total, 58 PKI were analyzed. Briefly, 100 μL of liquid MM containing 2.5×10^3 conidia/mL of the A. fumigatus wild-type strain plus 10% alamar blue was inoculated with increasing concentration of PKI (5-80 μM) in the presence (or not) of BRI (20μM) and incubated 48 hours at 37° C. without shaking. […] Plates were incubated for 48 hours at 37° C. without shaking. All experiments containing alamar blue were, after 48 hours incubation, read spectrophotometically by fluorescence and analyzed as previously described. Experiments were repeated at least three times.
To assess the mechanism of action of BRI, a collection of 58 protein kinase inhibitors (PKI, at a concentration of 20 μM; Table 4) was screened for A. fumigatus growth and corresponding metabolic activity alone or together with 20 μM BRI (Table 4).
A further data set concerns Cryptococcus neoformans. The data set can be described thus: In vitro susceptibility (MIC), macrobroth dilution. Format: cell-based. The note with it: C. neoformans CN9759, drug alone.
In data set [3] the test system is A549 human lung cancer cells. Format: cell-based. The settings on record: 48 h, 10 %. As for the experimental part:
Cytotoxicity assay: Cytotoxicity assays in A549 human lung cancer cells were performed using XTT assay as indicated in the manufacturers' instructions. Cells (2×10^5 cells/well) were seeded in 96-well tissue plates and incubated in Dulbecco's Modified Eagle Medium (DMEM) culture medium. After 24 hours of incubation, the cells were treated with BRI (40 and 80 μM/well), CAS (50, 100 and 200 μg/well) or in different CAS+BRI combinations. After 48 hours incubation, the cell viability was assessed by using the XTT kit (Roche Applied Science) according to the manufacturer's instructions. Formazan formation was quantified spectrophotometrically at 450 nm (reference wavelength 620 nm) using a microplate reader. The experiment was made in three replicates. Viability was calculated using the background-corrected absorbance as follows: Cell viability (%)=absorbance value of experiment well/absorbance value of control well×100.

In another data set the test system is A. fumigatus biofilms. The data set can be described thus: Biofilm assay (XTT). The settings on record: Aspergillus fumigatus, read-out: inhibition of biofilm formation. A general note: Tetrazolium dyes change colour on reduction, which living cells bring about.
The subject of data set [4] is A. fumigatus conidia infecting A549 pulmonary cells. The data set can be described thus: Killing assay in infected A549 cells. The note with it: monotherapy. Format: cell-based, Aspergillus fumigatus. On the procedure: Killing assay: The type II pneumocyte cell line A549 was cultured using DMEM (ThermoFischer Scientific, Paisley. […] After 24 hours of incubation in 5% CO2 the culture media was removed, and 2 ml of sterile water was added to the wells. A P1000 tip was then used to scrape away the cell monolayer and the cell suspension was collected. This suspension was then diluted 1:1000 and 100 μl was plated on Sabouraud Dextrose Agar Media before the plates were incubated a 37° C. overnight. The numbers of CFUs were determined after 24 hours of growth. A volume of 50 μl of the inoculum adjusted to 103/ml was also plated on SAB agar to correct CFU counts. The CFU percentage for each sample was calculated and the results were plotted using Graphpad Prism (GraphPad Software, Inc., La Jolla, CA, USA).

Data set [5] has as its system A. fumigatus. The data set can be described thus: MIC/MEC, CLSI M38-A2. Format: cell-based, Aspergillus fumigatus. The note with it: Aspergillus fumigatus, read-out: MIC VOR.
Data set [6] concerns A. fumigatus clinical isolates. Nature of the data set: Growth inhibition of clinical isolates by CAS, VOR, BRI and combinations. The note with it: strain CYP15-15-109, VOR.
[7] abbreviates: lowest concentration causing 50% decrease in growth vs untreated control.
Where [8] appears, read: lowest concentration without growth.

In brackets after ≈: the same amount, converted by molar mass. Like-named read-outs stand apart in the source and are kept apart here. Numbered stars: 1 amine (or outer) side, 2 acyl side, 3 side chain; on linkers, the order of the positions; unused ones are H or OH. Bridge positions count the residues as written; N and C are the ends. Square brackets hold non-standard residues; d marks the D form. Peptide text beside a SMILES is read from it. * marks the point of attachment. hTyr(3S-OH,4S-OH,3'-OSO3H) = N[C@H](C(=O)O)[C@H](O)[C@@H](O)c1ccc(O)c(OS(=O)(=O)O)c1; Orn(4R-OH,5R-OH) = O=C([C@H](C[C@@H](O)[C@@H](O)N[*:3])N[*:1])[*:2]; Pro(3S-OH,4S-Me) = C[C@H]1CN[C@H](C(=O)O)[C@H]1O; X1 = CCCCCOc1ccc(-c2cc(-c3ccc(C(=O)*)cc3)no2)cc1; Gln(3R-OH) = NC(=O)C[C@@H](O)[C@H](N)C(=O)O; Hyp = O=C(O)[C@@H]1C[C@@H](O)CN1

Procedure for A. fumigatus biofilms: Biofilm assay: To test the susceptibility of pre-formed A. fumigatus biofilms to
VOR, CAS and to the combination of CAS+BRI and VOR+BRI, a suspension containing 10^6 conidia per mL of the wild-type strain (Δku80 pyrG^+) was prepared in liquid MM and 100 μL of it was inoculated in each well of a 96-well plate. After 24 hours of incubation at 37° C., 50 μL of fresh MM containing CAS, VOR or the combination of VOR and CAS with BRI was added to the biofilm to reach the final concentration as indicated and incubated for a further 12 hours at 37° C. Wells containing untreated conidia were used as a positive control. After, the metabolic activity of the cells was evaluated by adding 50 μL of an aqueous XTT solution (1 mg/mL of XTT and 125 μM of menadione) to each well. The plate was incubated for additional 1 hour at 37° C., centrifuged (2000 rpm, 5 minutes) and 100 μL of the supernatant was transferred to a flat-bottomed 96-well plate. The absorbance was measured at 450 nm on a plate reader (Synergy HTX Multi-Mode Reader- BioTek Instruments). The XTT assay's were performed in six replicates.

Usually MIC50 stands for an inhibitory concentration at the 50% level, which refers to growth in some studies and to a panel of isolates in others. Lower therefore signals higher susceptibility. On to `CCCCCOc1ccc(-c2cc(-c3ccc(C(=O)N[C@H]4C[C@@H](O)[C@@H](O)NC(=O)[C@@H]5[C@@H](O)[C@@H](C)CN5C(=O)[C@H]([C@H](O)CC(N)=O)NC(=O)[C@H]([C@H](O)[C@@H](O)c5ccc(O)c(OS(=O)(=O)O)c5)NC(=O)[C@@H]5C[C@@H](O)CN5C(=O)[C@H]([C@@H](C)O)NC4=O)cc3)no2)cc1` [Micafungin (MICA)] (X1-[Orn(4R-OH,5R-OH)]T[Hyp][hTyr(3S-OH,4S-OH,3'-OSO3H)][Gln(3R-OH)][Pro(3S-OH,4S-Me)]; lactam 1-C), for which the results for the MIC50 in the data set with Mucorales Mucor species, in the data set on Aspergillus fumigatus (A. fumigatus 21-23) and in the data set with Candida albicans (setting [7]) were over 16 µg/mL, at most 0.06 µg/mL and at most 0.03 µg/mL, respectively. Further, the MIC100 in the data set on Mucorales Mucor species is over 16 µg/mL; against Aspergillus fumigatus (A. fumigatus 21-23) it was over 16 µg/mL; in the data set on Candida albicans (setting [8]), 0.25 µg/mL (≈ 0.197 µM).
Regarding `Nc1ncnc2c1c(-c1cnc3[nH]ccc3c1)nn2C1CCCC1` [PP121], the “effect on BRI activity (metabolic activity, Alamar blue)” value in the data set with A. fumigatus [1] was “potentiating the BRI activity”. Also, in the data set with A. fumigatus [2], the “growth, PKI (20 μM)” value was “++ (++: growth ≥80% compared to no treatment)” and the “growth, PKI (20 μM) + BRI (20 μM)” value was “+ (+: growth ≤60% compared to no treatment)”.
In the data set on Aspergillus fumigatus (A. fumigatus 10AF), `C[C@@H](c1ncncc1F)[C@](O)(Cn1cncn1)c1ccc(F)cc1F` [Voriconazole (VOR)] had an MIC50 of 0.125 µg/mL (≈ 0.358 µM) and an MIC100 of 1 µg/mL (≈ 2.86 µM).
`OC(Cn1cncn1)(Cn1cncn1)c1ccc(F)cc1F` [Fluconazole (FLU)] showed an MIC50 in the data set with Cryptococcus neoformans (setting [7]) of 1 µg/mL (≈ 3.27 µM). Besides, the MIC100 in the data set with Cryptococcus neoformans (setting [8]) turned out to be 1 µg/mL (≈ 3.27 µM).
On to `CC[C@@H]([C@H](C)O)n1ncn(-c2ccc(N3CCN(c4ccc(OC[C@@H]5CO[C@@](Cn6cncn6)(c6ccc(F)cc6F)C5)cc4)CC3)cc2)c1=O` [Posaconazole (POSA)], for which, in the data set on Mucorales Mucor species, the MIC50 was determined as 1 µg/mL (≈ 1.43 µM) and the MIC100 was over 16 µg/mL.
`COc1ccc2c(c[n+](C)c3c4cc5c(cc4ccc23)OCO5)c1OC` [chelerenthrine]: the “interaction with BRI in inhibition of metabolic activity (Alamar blue)” value in the data set with A. fumigatus [1] is listed as “synergize”.
Turning to `Nc1nc(=O)[nH]cc1F` [Flucytosine (FLCY)], in the data set on Aspergillus fumigatus (A. fumigatus 10AF), the MIC50 is over 64 µg/mL and the MIC100 is over 64 µg/mL.
Regarding `C[S+](C)[O-]` [DMSO, dimethyl sulfoxide], the “reduction of cell viability” value in [3] stood at 80%.
In the case of calphostin C, the “interaction with BRI in inhibition of metabolic activity (Alamar blue)” value in the data set on A. fumigatus [1] is listed as “synergize”.
Take `CCn1c(=O)c(-c2ccc(Cl)cc2Cl)cc2cnc(Nc3ccc(N4CCNCC4)c(F)c3)nc21` [FRAX486]: in the data set on A. fumigatus [1], the “effect on BRI activity (metabolic activity, Alamar blue)” value is “potentiating the BRI activity”. Moreover, in the data set on A. fumigatus [2], the “growth, PKI (20 μM)” value was “++ (++: growth ≥80% compared to no treatment)” and the “growth, PKI (20 μM) + BRI (20 μM)” value is on record as “+ (+: growth ≤60% compared to no treatment)”.
With `CC(C)(C)Cn1c(N)nc2ccc(-c3[nH]c(C(C)(C)C)nc3-c3ccc(F)cc3)nc21` [ralimetinib], in the data set with A. fumigatus [2], the activity at 20 µM was over 80% and the “growth, PKI (20 μM) + BRI (20 μM)” value is reported as “++ (++: growth ≥80% compared to no treatment)”.
The matching figures for `CNc1ncc2cc(-c3ccc(-c4cccc(C)n4)cc3Cl)c(=O)n(C[C@H]3OC[C@H](N)CO3)c2n1` [G5555]: over 80% and “++ (++: growth ≥80% compared to no treatment)”.
In the data set with Mucorales Mucor species, `C[C@@H]1[C@H](O)[C@@H](C)/C=C/C=C/C=C/C=C/C=C/C=C/C=C/[C@H](O[C@@H]2O[C@H](C)[C@@H](O)[C@H](N)[C@@H]2O)C[C@@H]2O[C@](O)(C[C@@H](O)C[C@@H](O)[C@H](O)CC[C@@H](O)C[C@@H](O)CC(=O)O[C@H]1C)C[C@H](O)[C@H]2C(=O)O` [Amphotericin B (AMPB)] displayed an MIC50 of 0.25 µg/mL (≈ 0.271 µM) and an MIC100 of 0.5 µg/mL (≈ 0.541 µM).
The inhibition is the drop in the measured response relative to a control, in per cent. As usually defined, the MIC is the smallest concentration in the dilution series that meets the test's criterion for growth inhibition. For the molecule `C[C@@H](c1ncncc1F)[C@](O)(Cn1cncn1)c1ccc(F)cc1F` [VOR, voriconazole], in the data set on A. fumigatus biofilms, the inhibition at 2 µg/mL was about 10% and the inhibition at 4 µg/mL is about 50%. Also, the A. fumigatus killing in data set [4] is given as about 60%. Besides, in the data set on A. fumigatus [5] (A. fumigatus VOR^R clinical isolate named in c0 of the row), the MIC came out at 8 µg/mL (≈ 22.9 µM). Moreover, the MIC with A. fumigatus [5] (A. fumigatus WT (CEA17)) came to 2 µg/mL (≈ 5.73 µM). Also, the growth inhibition entry in [6] is “totally inhibited”.
On to `CNC(=O)c1cccc(-c2ccc3c(N4CCOC[C@@H]4C)nc(N4CCOC[C@@H]4C)nc3n2)c1` [vistusertib], for which, in the data set with A. fumigatus [2], the activity at 20 µM was over 80% and the “growth, PKI (20 μM) + BRI (20 μM)” value is on record as “++ (++: growth ≥80% compared to no treatment)”.
